Assay type in all cases: cell-based
Test [1] has as its system IL-8. The test is described as follows: Inhibition of IL-8 production by stimulated human peripheral blood leukocytes in vitro. The conditions noted are these: for inhibition at 10 µM / inhibition at 50 µM: Homo sapiens, Leukocyte, read-out: Percentage of inhibition of IL-8 production. As to the method:
(§1) Test substances used in in vitro experiments were dissolved in dimethyl sulfoxide (DMSO) (Kemika, Croatia) at concentrations of 50 mM and 10 mM, and were further diluted to final concentrations of 50 μM and 10 μM in 1 mL Dulbecco's modified Eagle medium (DMEM) supplemented with 1% heat inactivated fetal bovine serum (FBS), 1% L-glutamine, 50 U/ml penicillin, 50 μg/ml streptomycin and 2.5 μg/mL Fungizone (amphotericin B). Media and all media supplements were purchased from Gibco, Australia, except the FBS was purchased from Sigma, USA.
(§2) Peripheral blood leukocytes (PBL) were obtained from venous blood of healthy volunteers by sedimentation on 2% dextran T-500 (Amersham Biosciences, USA) and subsequent centrifugations of leukocyte rich plasma.
(§3) Peripheral blood leukocytes (PBL), isolated as described above, were seeded in a 48-well plate at a concentration of 3 to 5×10^6 cell per well in culture medium consisting of RPMI 1640 medium (Institute of Immunology, Croatia) supplemented with 10% heat-inactivated fetal calf serum (FCS, Biowhittaker, USA), 100 U/ml penicillin (Gibco, Australia), 100 μg/ml streptomycin (Gibco, Australia) and 2 mM L-glutamine (Gibco, Australia), and preincubated with the test compounds for 2 h at 37° C., in an atmosphere of 5% CO2, and 90% humidity. Then, stimuli (Sigma, USA) were added to a final concentration of 2 μg/mL lipopolysaccharide (LPS), 1 μg/mL phorbol 12-myristate 13-acetate (PMA) or 120 μg/mL zymosan. Samples were incubated overnight under conditions described above. At the end of incubation, the supernatants were transferred to eppendorf tubes and centrifuged for 10 min at 1500×g. Concentrations of human TNF-α, IL-1β, IL-6 and IL-8 were determined in cell supernatants by sandwich ELISA, using capture and detection antibodies (R&D Systems, Minneapolis, Minn.) according to the manufacturer's recommendations.
(§4) Inhibition (as percentage) was calculated using the following formula: % inhibition=(1−concentration of cytokines in sample/concentration of cytokines in positive control)×100.
(§5) The positive control refers to LPS-, PMA- or zymosan-stimulated samples that were not preincubated with test compounds.

For test [2], the system named is IL-6. Nature of the test: Inhibition of IL-6 production by stimulated human peripheral blood leukocytes in vitro. Conditions: for inhibition at 10 µM / inhibition at 50 µM: Homo sapiens, Leukocyte, read-out: Percentage of inhibition of IL-6 production. The method, then: as §1, §2, §3, §4, §5
The subject of test [3] is IL-1α. The test is described as follows: Inhibition of IL-1 production by stimulated human peripheral blood leukocytes in vitro. Conditions: for inhibition at 10 µM / inhibition at 50 µM: Homo sapiens, Leukocyte, read-out: Percentage of inhibition of IL-1α production.
The test system of test [4] is TNF-α. Nature of the test: Inhibition of TNF-α production by stimulated human peripheral blood leukocytes in vitro. The conditions noted are these: for inhibition at 10 µM / inhibition at 50 µM: Homo sapiens, Leukocyte, read-out: Percentage of inhibition of TNF-α production. The method, then: as §1, §2, §3, §4, §5

The values that follow come from US8080529B2, “Macrolides with anti-inflammatory activity” (Glaxo Group Limited, priority 2005, dated 2011).

Read-outs that look alike come from different tables or passages of the source.

For the compound `CCC(=O)N(C)[C@H]1C[C@@H](C)O[C@@H](O[C@@H]2[C@@H](C)[C@H](O[C@H]3C[C@@](C)(OC)[C@@H](OC(=O)CCN(CC)CC)[C@H](C)O3)[C@@H](C)C(=O)O[C@H](CC)[C@@](C)(O)[C@H](O)[C@@H](C)NC(=O)[C@H](C)C[C@@]2(C)OC)[C@@H]1O` [Example 63, 3′-N-methyl-3′-N-propionyl-4″-O-(3-diethylaminopropionyl)-6-O-methyl-9a-aza-9a-homoerythromycin A], the “Percentage of inhibition of IL-8 production” value came to 0% in test [1] (10 μM, LPS-stimulated PBL); 0% in test [1] (10 μM, PMA-stimulated PBL); 0% in test [1] (10 μM, zymosan-stimulated PBL); 36% in test [1] (50 μM, LPS-stimulated PBL); 3% in test [1] (50 μM, PMA-stimulated PBL); 44% in test [1] (50 μM, zymosan-stimulated PBL). Further, the “Percentage of inhibition of IL-6 production” value is given as 8% in test [2] (10 μM, LPS-stimulated PBL); 24% in test [2] (10 μM, PMA-stimulated PBL); 0% in test [2] (10 μM, zymosan-stimulated PBL); 60% in test [2] (50 μM, LPS-stimulated PBL); 62% in test [2] (50 μM, PMA-stimulated PBL); 90% in test [2] (50 μM, zymosan-stimulated PBL). Moreover, the “Percentage of inhibition of IL-1α production” value in test [3] (10 μM, LPS-stimulated PBL) is given as 59%; in test [3] (10 μM, PMA-stimulated PBL), 52%; in test [3] (10 μM, zymosan-stimulated PBL), 45%; in test [3] (50 μM, LPS-stimulated PBL), 89%; in test [3] (50 μM, PMA-stimulated PBL), 81%; in test [3] (50 μM, zymosan-stimulated PBL), 100%. Also, the “Percentage of inhibition of TNF-α production” value in test [4] (10 μM, LPS-stimulated PBL) is 0%; in test [4] (10 μM, PMA-stimulated PBL) it was 21%; in test [4] (10 μM, zymosan-stimulated PBL), 0%; in test [4] (50 μM, LPS-stimulated PBL), 69%; in test [4] (50 μM, PMA-stimulated PBL), 73%; in test [4] (50 μM, zymosan-stimulated PBL), 87%.

By inhibition is commonly meant how much of the control response was suppressed. On to `CC[C@H]1OC(=O)[C@H](C)[C@@H](O[C@H]2C[C@@](C)(OC)C(OC(=O)CCN(CC)CC)[C@H](C)O2)[C@H](C)[C@@H](O[C@@H]2O[C@H](C)C[C@H](NC)[C@H]2O)[C@](C)(O)C[C@@H](C)CN(C)[C@H](C)[C@@H](O)[C@]1(C)O` (stereo partly drawn) [Example 90, 3′-N-Demethyl-4″-O-(3-diethylaminopropionyl)-azithromycin], for which the inhibition at 10 µM in test [1] (10 μM, LPS-stimulated PBL) was 4%; in test [1] (10 μM, PMA-stimulated PBL), 0%; in test [1] (10 μM, zymosan-stimulated PBL), 24%; in test [2] (10 μM, LPS-stimulated PBL), 67%; in test [2] (10 μM, PMA-stimulated PBL), 46%; in test [2] (10 μM, zymosan-stimulated PBL), 60%. The inhibition at 10 µM in test [3] (10 μM, LPS-stimulated PBL) was determined as 62%; in test [3] (10 μM, PMA-stimulated PBL) it was 61%; in test [3] (10 μM, zymosan-stimulated PBL), 82%; in test [4] (10 μM, LPS-stimulated PBL) it was 78%; in test [4] (10 μM, PMA-stimulated PBL), 40%; in test [4] (10 μM, zymosan-stimulated PBL), 53%. The inhibition at 50 µM in test [1] (50 μM, LPS-stimulated PBL) was found to be 38%; in test [1] (50 μM, PMA-stimulated PBL), 53%; in test [1] (50 μM, zymosan-stimulated PBL) it was 88%; in test [2] (50 μM, LPS-stimulated PBL), 88%; in test [2] (50 μM, PMA-stimulated PBL) it was 90%; in test [2] (50 μM, zymosan-stimulated PBL), 100%. Moreover, the inhibition at 50 µM came out at 91% in test [3] (50 μM, LPS-stimulated PBL); 57% in test [3] (50 μM, PMA-stimulated PBL); 100% in test [3] (50 μM, zymosan-stimulated PBL); 100% in test [4] (50 μM, LPS-stimulated PBL); 95% in test [4] (50 μM, PMA-stimulated PBL); 94% in test [4] (50 μM, zymosan-stimulated PBL).

`CC[C@H]1OC(=O)[C@H](C)[C@@H](O[C@H]2C[C@@](C)(OC)[C@@H](OCCCN(CC)CC)[C@H](C)O2)[C@H](C)[C@@H](O[C@@H]2O[C@H](C)C[C@H](N(C)C)[C@H]2O)[C@](C)(O)C[C@@H](C)CN(C)[C@H](C)[C@H]2OC(=O)O[C@@]21C` [Example 95, 4″-O-(3-diethylamino-propyl)-azithromycin 11,12-cyclic carbonate]: the “Percentage of inhibition of IL-8 production” value in test [1] (10 μM, LPS-stimulated PBL) is reported as 0%; in test [1] (10 μM, PMA-stimulated PBL) it was 0%; in test [1] (10 μM, zymosan-stimulated PBL), 5%; in test [1] (50 μM, LPS-stimulated PBL) it was 16%; in test [1] (50 μM, PMA-stimulated PBL) it was 21%; in test [1] (50 μM, zymosan-stimulated PBL), 33%. The “Percentage of inhibition of IL-6 production” value is given as 1% in test [2] (10 μM, LPS-stimulated PBL); 17% in test [2] (10 μM, PMA-stimulated PBL); 18% in test [2] (10 μM, zymosan-stimulated PBL); 8% in test [2] (50 μM, LPS-stimulated PBL); 56% in test [2] (50 μM, PMA-stimulated PBL); 58% in test [2] (50 μM, zymosan-stimulated PBL). Further, the “Percentage of inhibition of IL-1α production” value was 0% in test [3] (10 μM, LPS-stimulated PBL); 25% in test [3] (10 μM, PMA-stimulated PBL); 38% in test [3] (10 μM, zymosan-stimulated PBL); 0% in test [3] (50 μM, LPS-stimulated PBL); 75% in test [3] (50 μM, PMA-stimulated PBL); 42% in test [3] (50 μM, zymosan-stimulated PBL). Besides, the “Percentage of inhibition of TNF-α production” value in test [4] (10 μM, LPS-stimulated PBL) was 12%; in test [4] (10 μM, PMA-stimulated PBL) it was 34%; in test [4] (10 μM, zymosan-stimulated PBL), 47%; in test [4] (50 μM, LPS-stimulated PBL) it was 30%; in test [4] (50 μM, PMA-stimulated PBL) it was 50%; in test [4] (50 μM, zymosan-stimulated PBL) it was 63%.

With `CC[C@H]1OC(=O)[C@H](C)[C@@H](O[C@H]2C[C@@](C)(OC)[C@@H](OCCCN(CC)CC)[C@H](C)O2)[C@H](C)[C@@H](O[C@@H]2O[C@H](C)C[C@H](N(C)C)[C@H]2O)[C@](C)(O)C[C@@H](C)CN(C)[C@H](C)[C@@H](O)[C@]1(C)O` [Example 96, 4″-O-(3-diethylamino-propyl)-azithromycin], the inhibition at 10 µM in test [1] (10 μM, LPS-stimulated PBL) stood at 0%; in test [1] (10 μM, PMA-stimulated PBL), 0%; in test [1] (10 μM, zymosan-stimulated PBL), 6%; in test [2] (10 μM, LPS-stimulated PBL) it was 0%; in test [2] (10 μM, PMA-stimulated PBL) it was 27%; in test [2] (10 μM, zymosan-stimulated PBL) it was 17%. The inhibition at 10 µM in test [3] (10 μM, LPS-stimulated PBL) was 0%; in test [3] (10 μM, PMA-stimulated PBL), 32%; in test [3] (10 μM, zymosan-stimulated PBL), 36%; in test [4] (10 μM, LPS-stimulated PBL), 3%; in test [4] (10 μM, PMA-stimulated PBL), 14%; in test [4] (10 μM, zymosan-stimulated PBL) it was 21%. The inhibition at 50 µM in test [1] (50 μM, LPS-stimulated PBL) is 17%; in test [1] (50 μM, PMA-stimulated PBL), 12%; in test [1] (50 μM, zymosan-stimulated PBL) it was 40%; in test [2] (50 μM, LPS-stimulated PBL), 3%; in test [2] (50 μM, PMA-stimulated PBL), 64%; in test [2] (50 μM, zymosan-stimulated PBL) it was 76%. The inhibition at 50 µM in test [3] (50 μM, LPS-stimulated PBL) came to 0%; in test [3] (50 μM, PMA-stimulated PBL), 81%; in test [3] (50 μM, zymosan-stimulated PBL), 88%; in test [4] (50 μM, LPS-stimulated PBL), 13%; in test [4] (50 μM, PMA-stimulated PBL), 48%; in test [4] (50 μM, zymosan-stimulated PBL), 61%.
